Experimental data taken from PubChem BioAssay AID1417 (Emory University Molecular Libraries Screening Center, 2008).

The compounds below were run against Induced myeloid leukemia cell differentiation protein Mcl-1 (Homo sapiens) (UniProt Q07820) (assay: Mcl-1/Noxa binding inhibitor potency, dose response, biochemical, TR-FRET (AID 1417)). Conditions: Mcl-1/Noxa peptide interaction, cell-free TR-FRET (terbium/rhodamine), 2 h; measured here: absolute IC50.
Sequence of Induced myeloid leukemia cell differentiation protein Mcl-1 (Homo sapiens) (Q07820 whole entry, looked up): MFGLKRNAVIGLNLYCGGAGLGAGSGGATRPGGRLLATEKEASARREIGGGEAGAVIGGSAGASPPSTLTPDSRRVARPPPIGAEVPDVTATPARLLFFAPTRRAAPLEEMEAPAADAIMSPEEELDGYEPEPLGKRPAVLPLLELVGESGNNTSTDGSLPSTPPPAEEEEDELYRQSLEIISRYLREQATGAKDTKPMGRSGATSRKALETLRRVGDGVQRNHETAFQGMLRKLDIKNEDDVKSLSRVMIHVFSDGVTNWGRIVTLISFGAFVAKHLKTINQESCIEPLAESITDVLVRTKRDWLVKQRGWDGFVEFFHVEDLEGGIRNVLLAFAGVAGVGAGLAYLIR
O=c1cc(-c2ccc([N+](=O)[O-])cc2)nc2cc(-c3ccc(Cl)cc3)[nH]n12 was tested, and the IC50 was 1.63 µM. In the case of O=C(O)CSc1cc(C(=O)c2cc(F)ccc2O)cn2c(=O)c3c(-c4ccccc4)csc3nc12, the IC50 is reported as 2.12 µM. For CC(=O)N(C1=C(Cl)C(=O)c2ccccc2C1=O)C1CCCCC1, the IC50 was less than 0.4 µM. COc1ccc(/C=C2\SC(=O)N(CCC(=O)Nc3ccc(S(=O)(=O)Nc4nccs4)cc3)C2=O)cc1 was tested, and the IC50 was less than 0.4 µM. In the case of O=C(NCc1ccccc1)c1ccc2nc(-c3ccco3)c(-c3ccco3)nc2c1, the IC50 is reported as 2.3 µM. Cc1ccc(-n2nc3cc(C)c(N)cc3n2)cc1 gave an IC50 of less than 0.4 µM. Work on O=C(O)c1ccc(N/N=C/c2ccc(-c3ccc(Cl)cc3Cl)o2)cc1 yielded an IC50 of 4.36 µM. COc1cc(/C=C2\SC(=S)N(CC(=O)Nc3ccc(O)cc3)C2=O)cc(OC)c1OC showed an IC50 of less than 0.4 µM. Compound CNC(=O)NC1CCCc2ccccc21 (configuration not stated) has an IC50 greater than 54 µM. Work on CCc1ccc(NC(=O)N(CCN2CCOCC2)Cc2ccc3c(c2)CCCN3CC)cc1 yielded an IC50 greater than 54 µM. CN(C)c1ccc(/C=C/c2ccc3c4ccccc4ccc3[n+]2-c2ccccc2)cc1 gave an IC50 greater than 54 µM. O=C1Nc2ccc(Br)cc2/C1=C/C(=O)c1ccc2c(c1)OCO2 was tested, and the IC50 was 1.38 µM. Work on O=C1Oc2ccccc2C(=O)/C1=C/c1ccccc1O yielded an IC50 of 3.62 µM. In the case of COc1ccc(C(=O)c2sc3nc(-c4ccc(OC)cc4)ccc3c2N)cc1, the IC50 is reported as greater than 54 µM. O=C(NC1CC1)c1cc(-c2ccco2)nc2ccccc12 gave an IC50 of less than 0.4 µM. CC(C)(C)c1cc(-c2csc(Nc3ccccc3)[n+]2Cc2ccc(C(=O)O)cc2)cc(C(C)(C)C)c1O was tested, and the IC50 was 1.32 µM. With Oc1[nH]c(=S)sc1/C=C1\C(c2ccccc2)=Nc2ccccc21 the IC50 was 8.66 µM. N/C(=N\N=C/c1ccc(-c2ccc(O)c(C(=O)O)c2)o1)N[N+](=O)[O-] was tested, and the IC50 was 2.65 µM. O=C(ONc1ccc(N=NC(=O)c2ccccc2O)cc1)c1ccccc1 gave an IC50 of 13 µM. Cc1cc2nc(-c3ccc(SCc4ccc(C(=O)O)cc4)nc3)[nH]c2cc1C gave an IC50 of less than 0.4 µM. For CN(C)c1ccc(C(CNC(=O)c2ccc(F)cc2)c2c[nH]c3ccccc23)cc1 (configuration not stated), the IC50 was greater than 54 µM. For C(=C\c1ccco1)/c1ccc2ccccc2n1, the IC50 was 4.18 µM. With CNC(=O)COC(=O)c1cc(-c2ccco2)nc2ccccc12 the IC50 was 3.16 µM. Work on Cc1c(C(=O)N/N=C/c2ccc(-c3ccccc3[N+](=O)[O-])o2)sc(N)c1C#N yielded an IC50 of 1.69 µM. Work on O=C1C(Cl)=C(N2CCCCC2)C(=O)C(Cl)=C1c1cnc(N2CCCCC2)s1 yielded an IC50 of less than 0.4 µM. CS(=O)(=O)c1ccc(C(=O)NCCN2C(=O)S/C(=C\c3cccnc3)C2=O)cc1[N+](=O)[O-] showed an IC50 of 3.15 µM. Compound COc1ccc(OCC(=O)Nc2nnc(-c3ccco3)s2)cc1 has an IC50 of 3.81 µM. C=C(C)C(=O)Nc1cccc(C2=NOC3(C2)C[C@@H](C(N)=O)N(C(=O)c2cc([N+](=O)[O-])cc([N+](=O)[O-])c2C)C3)c1 (some centres not stated) showed an IC50 of 4.09 µM. With Oc1c(Br)cc(C=Nc2ccc3nc(-c4ccccc4)[nH]c3c2)c(O)c1Br the IC50 was 0.594 µM. Compound O=C(Nc1ccc(N2CCCC2)cc1)c1ccc(Br)o1 has an IC50 of 1.06 µM. In the case of COc1cc(/C=N/Nc2nnc3c(n2)[nH]c2ccccc23)ccc1O, the IC50 is reported as 5.83 µM. Work on Cc1cc(/C=C2/C(=O)NN(c3ccccc3)C2=O)c(C)n1-c1cccc(O)c1 yielded an IC50 of 3.25 µM. O=C(C1=C[C@@H](c2ccc(C(F)(F)F)cc2)C[C@@H](OCc2ccc(CO)cc2)O1)N1CCN(Cc2ccccc2)CC1 gave an IC50 greater than 54 µM. Compound Cc1ccc(-c2cc(C(=O)O)c3cc(Br)ccc3n2)o1 has an IC50 of 4.68 µM. In the case of COc1cc(/C=C(\C#N)c2nc3ccc(C)cc3[nH]2)cc([N+](=O)[O-])c1O, the IC50 is reported as 3.44 µM. Compound COc1ccc(C(=O)O)cc1NC(=S)NC(=O)c1ccc(-c2ccc(Cl)cc2)o1 has an IC50 greater than 54 µM. Work on COc1ccc(CCNC(=O)c2ccc3nc(-c4ccco4)c(-c4ccco4)nc3c2)cc1OC yielded an IC50 of 4.47 µM. Compound O=C(N/N=C/c1ccc(O)c(O)c1)c1ccc(CSc2cccc3cccnc23)cc1 has an IC50 of 3.09 µM. With CC1=NOC(=O)/C1=C\c1ccc(-c2ccc(Cl)cc2Cl)o1 the IC50 was less than 0.4 µM. For Cc1ccc(-c2c3c([nH]c(=S)c2C#N)CCCC3)o1, the IC50 was 1.17 µM. O=C(Nc1ccc(N2CCOCC2)cc1)Nc1ccc2nc(-c3ccco3)c(-c3ccco3)nc2c1 was tested, and the IC50 was less than 0.4 µM. With CCCSC1=N/C(=C\C=C\c2ccco2)C(=O)S1 the IC50 was 3.1 µM.
